Patent US20040116506A1, “Use of levetiracetam for treating or preventing acute headaches” (priority 2002, published 2004)

How the values were obtained:
[1] = over a wide dose range; cited from earlier work
[2] = tested on: epileptic seizures; conditions: taken chronically; patients who suffer from frequent seizures; cited from earlier work
[3] = tested on: recurrent migraine headaches; assay: Oral levetiracetam as a prophylactic agent, small-scale open-label trial; assay type: in vivo; conditions: chronic daily oral treatment, 250 to 750 mg tablets; substantial fraction of patients
Text: A limited number of patients who were being treated by the Applicant for recurrent migraine headaches were placed on a regimen of daily oral levetiracetam, in a small-scale open-label trial. […] In general, the recurrent migraine patients who were chosen for this type of experimental trial were those who had not responded adequately to various other known candidate treatments. Patients kept daily records of the frequency of their migraine headaches, and also kept logs that recorded the severity of each headache, on a subjective scale of 1 to 10, with 1 being mild, and 10 being extremely intense pain.

[4] = tested on: intractable migraine headache; assay: Injectable (intravenous) levetiracetam for acute migraines, open-label study; assay type: in vivo, patients
Experimental: Sterile, preservative-free liquid preparations of levetiracetam, at concentrations of 200 mg/ml or 400 mg/ml, was prepared in a laminar flow hood by a compounding pharmacist. Particulate matter was filtered out through a series of filtrations and the solution was stabilized at a pH of 6.0. The resulting solution was clear. 29 patients were treated (19 female and 10 male), and a total of 42 intractable migraines were treated in this study. Their age range was 26 to 59 (mean age, 44 years). All patients had failed treatment with their usual migraine-specific or abortive therapies. Most patients (n=24) were in the second or third day of intractable migraine headache. 5 patients were treated on more than one occasion (1 patient was treated 6 separate times; 1 patient, 5 times, 1 patient, 3 times; and 2 patients, twice each). 6 patients (21%) were already on levetiracetam orally at the time of intravenous treatment. 23 were naive to levetiracetam at the time of treatment. Patients were treated in the setting of a headache clinic. An antecubital line was started and pulse oximetry monitoring was employed throughout treatment. No other medications were given orally or intravenously to treat the migraine. In a typical treatment for a first-time patient, a test dose of 400 mg levetiracetam was given, and then 400-600 mg was given every 5 minutes, until maximum effect was reported by the patient. The average dosage given intravenously was 5940 mg (range 400 to 16,000 mg). The average time to best response after treatment was 66 min (range=20-120 min). Prior to treatment, migraine severity (reported by each patient on a 0 to 10 numeric rating scale (NRS), with 10 representing the absolute worst possible pain) was 8.4. After treatment, it was 1.6, which represents a mean reduction of 81% in migraine severity. 16 patients (55%), representing 21 of 42 episodes, had complete resolution of their ongoing migraine, to a reported severity of zero. Only one patient had no reported response to the treatment.

CC[C@@H](C(N)=O)N1CCCC1=O [levetiracetam]
tolerability / toxicity [1]: well tolerated over a wide dose range with no apparent toxicity | reduction of the frequency of epileptic seizures [2]: 15 to 30% | reduced frequency and/or reduced severity of migraine headaches [3]: substantial benefits | episodes with complete resolution of ongoing migraine ([4]; intravenous): 21 of 42 episodes | side effects ([4]; intravenous): minimal | time to best response after treatment, range ([4]; intravenous, 29 patients, 42 migraines): 20 to 120 min | mean reduction in migraine severity ([4]; intravenous, NRS 8.4 prior to treatment vs 1.6 after): 81% | average time to best response after treatment ([4]; intravenous, average dosage 5940 mg, 29 patients, 42 migraines): 66 min | time until side effects dissipated spontaneously ([4]; intravenous, nausea and drowsiness): 30 to 90 min | patients reporting drowsiness ([4]; intravenous, of 29 patients): 2 patients | patients reporting transient nausea ([4]; intravenous, of 29 patients): 3 patients | patients with complete resolution of ongoing migraine, to a reported severity of zero ([4]; intravenous, of 29 patients): 16 patients | patients with no reported response to the treatment ([4]; intravenous, of 29 patients): one | share of patients with complete resolution of ongoing migraine ([4]; intravenous, of 29 patients): 55% | migraine severity after treatment (0 to 10 numeric rating scale, NRS) ([4]; intravenous, severity prior to treatment was 8.4): 1.6 | outcome in patient treated for a combination of cluster headaches and migraines ([4]; one patient): resolution of both
